Measurements: ChEMBL document CHEMBL3045373, “New thiazolidinyl analogs containing pyridine ring: synthesis, biological evaluation and QSAR studies” (2013)

Columns and labels:
Rattus norvegicus = experiment: Anti-inflammatory activity against Rattus norvegicus Wistar (rat) assessed as inhibition of carrageenan-induced paw edema at 10 mg/kg, po administered 30 min prior to carrageenan challenge measured at 120 min by plethysmometeric analysis relative to untreated control; format: functional
Mus musculus = experiment: Analgesic activity in Mus musculus Swiss albino (mouse) assessed as inhibition of acetic acid-induced writhing at 50 mg/kg, po administered 30 min prior to acetic acid challenge measured at 5 to 15 min relative to untreated control; format: functional

Structure (SMILES)	inhibition in vivo at 10 mg/kg (Rattus norvegicus) [%]	inhibition in vivo at 50 mg/kg (Mus musculus) [%]
O=C1N/C(=N/c2ccccc2)S/C1=C\c1ccccn1	26.2	29.2
O=C1N/C(=N/c2ccc(Cl)cc2)S/C1=C\c1ccccn1	34.8	41.7
Cc1cccc(/N=C2/NC(=O)/C(=C/c3ccccn3)S2)c1	39.7	52.3
Cc1ccc(/N=C2/NC(=O)/C(=C/c3ccccn3)S2)cc1	43.8	43.2
O=C1N/C(=N/c2ccc(F)cc2)S/C1=C\c1ccccn1	34.7	43.2
O=C1N/C(=N\Nc2ccccc2)S/C1=C\c1ccccn1	39.7	46.2
O=C1N/C(=N\c2ccccc2[N+](=O)[O-])S/C1=C/c1ccccn1	34.8	36.7
O=C1N/C(=N\Nc2ccc([N+](=O)[O-])cc2[N+](=O)[O-])S/C1=C\c1ccccn1	56.5	68.7
COc1ccc(/N=C2\NC(=O)/C(=C/c3ccccn3)S2)cc1	39.1	42.4
O=C1N/C(=N/c2cccc([N+](=O)[O-])c2)S/C1=C\c1ccccn1	43.5	62.3
O=C1N/C(=N/c2ccc([N+](=O)[O-])cc2Cl)S/C1=C\c1ccccn1	39.7	37.4
Cc1cccc(C)c1/N=C1/NC(=O)/C(=C/c2ccccn2)S1	39.7	51.5
O=C1N/C(=N/c2ccccc2Cl)S/C1=C\c1ccccn1	26.2	36.2
Cc1ccccc1/N=C1/NC(=O)/C(=C/c2ccccn2)S1	30.4	43.6
O=C1N/C(=N/c2ccc(Br)cc2)S/C1=C\c1ccccn1	30.4	28.7
O=C(O)Cc1ccccc1Nc1c(Cl)cccc1Cl [DICLOFENAC SODIUM]	43.5	60.2
